# Results from ChEMBL document CHEMBL1146532, “Seco-prezizaane-type sesquiterpenes and an abietane-type diterpene from Illicium minwanense” (J Nat Prod, 2003).
# Calls of active or inactive are those of the source. No cut-off for these calls is given here.
# Tested on: Cortical neurone
# Test: Induction of neurite outgrowth in rat cortical neurons at 10 uM after 4 days
row,SMILES,Activity
1,C[C@@H]1CC(=O)[C@@]2(O)[C@]13CC(=O)OC[C@@]2(C)[C@@](C)(O)C(=O)C3,inactive
2,C[C@]12COC(=O)C[C@@]3(CC(=O)[C@]1(C)O)[C@]2(O)[C@@H](O)C[C@]3(C)O,inactive
3,C[C@@H]1[C@H](O)[C@H](O)[C@@]2(O)[C@]13CC(=O)OC[C@@]2(C)[C@H](C)C(=O)C3,inactive
4,C[C@@H]1C[C@H](O)[C@@]2(O)[C@]13CC(=O)O[C@H](C3)[C@@H](C)[C@@]2(C)CO,inactive
5,C[C@@H]1C[C@H](O)[C@@]2(O)[C@]13CC(=O)OC[C@@]2(C)[C@@](C)(O)C(=O)C3,inactive
6,C[C@@H]1C(=O)C[C@]23CC(=O)OC[C@]1(C)[C@@]2(O)[C@@H](O)C[C@]3(C)O,inactive
7,C[C@@H]1C[C@H](O)[C@@]2(O)[C@]13CC(=O)OC[C@@]2(C)[C@H](C)C(=O)C3,inactive
8,C[C@]12COC(=O)C[C@@]3(CC(=O)[C@]1(C)O)[C@]2(O)CC[C@]3(C)O,inactive
9,C[C@@H]1[C@H](O)C[C@]23OC(=O)C[C@]12C[C@]1(O)OC[C@]3(C)[C@@H]1C,inactive
10,C[C@@H]1[C@H]2C[C@]3(CC(=O)O2)C(=CC(=O)[C@@H]3C)[C@]1(C)CO (relative stereo),inactive
11,CO[C@@]12C[C@]34CC(=O)O[C@]3(C[C@@H](O)[C@H]4C)[C@](C)(CO1)[C@@H]2C,inactive
12,C[C@@H]1C(=O)C=C2[C@]13CC(=O)O[C@H](C3)[C@@H](C)[C@@]2(C)CO (relative stereo),inactive
13,C[C@@H]1C[C@H](O)[C@@]23O[C@@]4(O)C[C@@]12CC(=O)OC[C@@]3(C)[C@H]4C (relative stereo),inactive
